Assay results: patent US20130115256A1, “METHODS FOR TREATING OR PREVENTING VASCULAR GRAFT FAILURE” (priority 2010, published 2013)

Columns and labels:
[1] = system: human coronary artery endothelial cells (HCAEC); assay: TNF-α-induced IL-6 and IL-8 expression in HCAEC (ELISA); assay type: cell-based; conditions: 0.5 mM MMI-0100, 24 hours after 6 hour TNF-α
Description: Primary human coronary artery endothelial cells (HCAEC) were cultured and seeded onto a 96-well plate, using methods described in the MTS proliferation assay above. Cells were again stimulated with 20 ng/ml of TNF-α for 6 hours and then treated with MMI-0100 (SEQ ID NO: 1) for approximately 24 hours. Supernatants were then collected and analyzed for drug effect on inflammatory cytokines.
IL-6 (Cat #: 900-K16; Lot #: 0909016) and IL-8 (Cat #: 900-K18; Lot #: 0209018) ELISA kits (Peprotech; Rocky Hill, N.J.) were used to measure levels of these cytokines from HCAEC supernatants following treatment with MMI-0100 ([…]; SEQ ID NO: 1). The Human IL-6 ELISA development kit contains the key components required for the quantitative measurement of natural and/or recombinant hIL-6 in a sandwich ELISA format within the range of 32-2000 pg/ml. Human IL-8 ELISA development kit contains the key components required for the quantitative measurement of natural and/or recombinant hIL-8 in a sandwich ELISA format within the range of 16-1000 pg/ml.
Briefly, 10 μl of supernatant was diluted with 90 μl of diluents; 3 replicates of each sample were used. Data were collected at 405 nm with correction at 650 nm on a plate reader. Each plate was monitored for 1 hour with readings taken every 5 minutes. Concentrations of IL-6 and IL-8 in test samples were determined by extrapolating from a standard curve. […]

MKK3 = target: T1, MKK3 (Homo sapiens, UniProt P46734); assay: MKK3 kinase activity (data not shown); assay type: biochemical; conditions: concentration that inhibits >95% of MK2
T1 sequence (P46734 1-347): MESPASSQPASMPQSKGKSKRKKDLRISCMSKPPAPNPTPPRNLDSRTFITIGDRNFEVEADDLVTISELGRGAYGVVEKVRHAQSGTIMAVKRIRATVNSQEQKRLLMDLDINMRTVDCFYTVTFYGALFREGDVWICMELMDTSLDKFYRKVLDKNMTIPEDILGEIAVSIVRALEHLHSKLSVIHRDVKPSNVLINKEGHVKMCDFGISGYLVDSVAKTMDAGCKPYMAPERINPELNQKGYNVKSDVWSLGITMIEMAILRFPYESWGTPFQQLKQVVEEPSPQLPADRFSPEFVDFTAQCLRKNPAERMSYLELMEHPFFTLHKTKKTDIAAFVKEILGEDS
From the text: (§1) A commercial radiometric assay service was used to test the specificity and potency of MMI-0100 ([…]; SEQ ID NO: 1) by measuring its half maximal inhibitory concentrations (IC50). This quantitative assay measures how much MK2 inhibitor (MMI-0100; […] (SEQ ID NO: 1)) is needed to inhibit 50% of a given biological process or component of a process (i.e., an enzyme, cell, or cell receptor). Specifically, in these assays, a positively charged substrate is phosphorylated with a radiolabeled phosphate group from an ATP if the kinase is not inhibited by an inhibitor peptide. The positively charged substrate then is attracted to a negatively charged filter membrane, quantified with a scintillation counter, and compared to a 100% activity control. ATP concentrations within 15 μM of the apparent Km for ATP were chosen since an ATP concentration near the Km may allow for the kinases to have the same relative amount of phosphorylation activity. The individual conditions for each radiometric assay are as follows.
(§2) IC50 values for inhibitor peptides were determined using Millipore's IC50 Profiler Express service. The IC50 value was estimated from a 10-point curve of one-half log dilutions. […]

[2] = system: mouse lung endothelial cells (MLEC); assay: MCP-1 production immunoassay; assay type: cell-based; conditions: even at high doses
Description: Monocyte Chemotractic Protein-1 (MCP-1) production from mouse lung endothelial cells (MLEC) was analyzed using conditioned culture medium by Quantikine® Mouse CCL/JE/MCP-1 Immunoassay (R&D Systems) following the manufacturer's instructions. Briefly, the assay employs a quantitative sandwich enzyme immunoassay technique in which a monoclonal antibody specific for MCP-1 has been pre-coated onto a microplaste. Standards and samples are pipetted into the wells and any MCP-1 present is bound by the immobilized antibody. After washing away any unbound substances, an enzyme-linked polyclonal antibody specific for MCP-1 is added to the wells. Following a wash to remove any unbound antibody-enzyme reagent, a substrate solution is added to the wells and color develops in proportion to the amount of MCP-1 bound in the initial step. The color development is stopped and the intensity of the color is measured at 450 nm, with wavelength correction at 540 nm or 570 nm.

MKK4 = target: T2, MKK4 (Homo sapiens, UniProt P45985); assay: MKK4 radiometric kinase assay; assay type: biochemical; conditions: MMI-0100 100 μM; remaining kinase activity
T2 construct: purchased Millipore (KinaseProfiler service)
T2 sequence (P45985 1-399): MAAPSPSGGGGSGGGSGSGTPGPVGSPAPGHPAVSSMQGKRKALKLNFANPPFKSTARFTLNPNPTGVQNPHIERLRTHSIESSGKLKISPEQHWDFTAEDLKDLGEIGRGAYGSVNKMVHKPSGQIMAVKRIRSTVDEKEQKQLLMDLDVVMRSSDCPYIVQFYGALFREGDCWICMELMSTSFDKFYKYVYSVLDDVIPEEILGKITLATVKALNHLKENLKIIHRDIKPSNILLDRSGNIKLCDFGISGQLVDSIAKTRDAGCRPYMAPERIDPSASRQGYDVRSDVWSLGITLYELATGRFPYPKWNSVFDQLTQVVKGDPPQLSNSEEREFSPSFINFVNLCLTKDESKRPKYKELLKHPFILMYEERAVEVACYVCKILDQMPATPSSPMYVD
From the text: as §1
The reaction was initiated by the addition of the MgATP. After incubation for 40 minutes at room temperature, 5 μl of the incubation mix was used to initiate the JNK radiometric assay described above.
as §2

YARAAARQARAKALARQLGVAA [MMI-0100]
TNF-α-induced IL-6 expression [1]: reduced the level of TNF-α-induced IL-6 expression to that of the untreated control | TNF-α-induced IL-8 expression [1]: no effect | reduction in MKK3 activity (MKK3): no reduction | MCP-1 production [2]: did not stimulate MCP-1 production | Percent Activity, MKK4 (MKK4): 90%
